Here are results for two compounds from patent publication US12070458B2, “Therapeutic agent composition and method of use, for treatment of mild congnitive impairment, depression, and psychological disorders” (priority 2018, dated 2024).

For data set [1], the system named is patients with major depressive disorder. Put plainly: Double-blind, randomized, placebo-controlled, active reference study in patients with major depressive disorder. It is filed as in vivo, human. Conditions: for change from baseline in MADRS total score, Mean ± SD / MADRS total score, Difference to Placebo: week 6, venlafaxine 75 mg/d orally. The source says: This randomized, double-blind, fixed-dose, placebo-controlled, active reference study recruited 32 randomized patients in accordance with the principles of Good Clinical Practice [ICH (1996). Harmonized Tripartite Guideline E6: Guideline for Good Clinical Practice (http://www.fda.gov/downloads/drugs/guidancecomplianceregulatoryinformation/gui dances/ucm073122.pdf)] and the Declaration of Helsinki [WMA (1964). Ethical Principles for Medical Research Involving Human Subjects (http://www.wma.net/en/30publications/10policies/b3/). World Medical Association.] Local ethics committees approved the study design and eligible patients gave their written informed consent before participating.
Eligible patients were randomized equally (1:1:1:1) to one of the four treatment arms for a 6-week double-blind treatment period. Randomized patients were given 1-week wallet cards at each visit and were instructed to take two capsules per day, orally, at the same time every day (preferably in the morning). NA-831 was dosed at 20 mg/day or 40 mg/d for 6 week and venlafaxine at 75 mg/d over 6-week treatment period. Efficacy and tolerability were assessed at screening, baseline and after 1, 2, 3, 4, 5, and 6 week. Patients were contacted for a safety follow-up 4 week after the completion visit.
Patients with MDD presenting with a current major depressive episode according to DSM-IV-TR criteria were included in the study if they were an outpatient of either sex, aged from 20 yr to 65 yr, (mean=39.7±8.5) (with a Montgomery—Åsberg Depression Rating Scale (MADRS) (Montgomery & Åsberg, 1979) total score ≥30 at the baseline visit. [Montgomery S Åsberg M (1979). A new depression scale designed to be sensitive to change. British Journal of Psychiatry 134 382-389.https://doi.org/10.1192/bjp.134.4.382]
Patients were evaluated using the MADRS from baseline to week 6. Rater training was undertaken to increase inter-rater reliability, and was supervised by an experienced investigator. Only those investigators who had actively participated in rater training sessions prior to inclusion of patients into the study were allowed to rate patients. Patient ratings were assessed by the same investigator at each visit, whenever possible.
All safety analyses were based on the all-patients-treated set (APT), comprising all randomized patients who took at least one dose of study medication. All efficacy analyses were based on a modified intent-to-treat set (ITT)—the full-analysis set (FAS), comprising all patients in the […] who had at least one valid post-baseline MADRS total score assessment.
Four hypotheses were part of the primary efficacy analysis, which was fully adjusted for multiplicity using a hierarchical testing procedure at the 5% level of significance as long as the previous hypothesis was rejected. The order of testing was: no difference between the 20 mg dose vs. placebo at week 6, no difference between […] at week 6, no difference between 20 mg dose vs. placebo at week 1, and finally no difference between 40 mg dose vs. placebo at week 1. The statistical model was an analysis of covariance (ANCOVA) of the change from baseline in MADRS total score (FAS, LOCF) with treatment and site as fixed factors and the baseline MADRS score as a covariate. The primary efficacy analysis was repeated on observed cases (OC) data, using both an ANCOVA and a mixed model for repeated measurements (MMRM).
All adverse effects (AEs) (including any change in concurrent illnesses or new illnesses) either observed by the investigator or reported spontaneously by the patient were recorded. AEs were coded using the lowest level term according to the Medical Dictionary for Regulatory Activities, version 10.0. As a post-hoc analysis, the safety database was searched at preferred-term and verbatim-term level for possible suicide-related AEs, as described by the FDA [Laughren (2006). Memorandum on Suicidality. (http://www.fda.gov/ohrms/dockets/ac/06/briefing/2006-4272b1-01-fda.pdf)].

The subject of data set [2] is cerebellar microexplants (P4). Kind of data set: Glutamate induced neuronal death in cerebellar microexplants (P4). The format is cell-based, Wistar rats. As to the method: Cerebellar Cell Culture Preparing and Coating of Cover Slips
Ten coverslips were placed into a large petri dish and washed in 70% alcohol for 5 minutes, then washed with Millipore H2O. The coverslips were air dried, then coated with Poly-D-Lysine (1 mg/ml stock solution in PBS, 90-100 μl) and incubated for 2 hours at 34° C.
Postnatal day 4 Wistar rats were used for the study. Rats were placed in ice for 1 minute, the heads were decapitated and the cerebellum removed on ice. Cerebellum tissue was placed in 1 ml of 0.65% glucose supplemented PBS (10 μl 65% stock D (+)glucose/1 ml PBS) in a large petri dish, chopped up into smaller sections and triturate with a 1 ml insulin syringe via a 23 G (0.4 mm) needle, and then squirted back into the glucose solution on the large petri dish. The tissue was sieved through (125 μm pore size gaze) and centrifuged (2 minutes at 60 g) two times for a medium exchange into serum-free BSA-supplemented START V medium (Biochrom). The second centrifugation step was done with 1 ml of START V medium. The microexplants were reconstituted into 500 μl of START V medium and put on ice.
Cultivation and Fixation of Cerebellar Cells
Two hours after PDL-coating, the slides were washed with Millipore H2O and air dried. Each slide was placed into a small 35 mm petri dish and 40 μl of START V/cell suspension added. The tissue was incubated for 2 hours at 34° C. (settlement period). START V-medium (1 ml) was then added to the petri dish and cultivated at 34° C./5% CO2/100% humidity for 48 hours. Cells were rinsed in PBS and then fixed for 2-3 minutes in increasing concentrations of paraformaldehyde (500 μl of 0.4% PFA was applied; then 1.2% PFA; then 3% PFA and finally 4% PFA—all fixation solutions contain 0.2% glutardialdehyde). Finally, the microexplants were rinsed in PBS.
10 μl of toxin (L-glutamate-100 mM in Millipore water) was applied simultaneously with cPG (from bachem, 10 mM stock prepared in PBS and diluted to final concentrations between 1-100 nM) for Study 1. A delay in administration of cPG at 6 hours after glutamate treatment was performed for Study 2.
10 μl of toxin (L-glutamate-100 mM in Millipore water) was applied simultaneously with cyclic(tri(prolylglycyl)) (which was obtained from NeuroBiomed, San Jose, California), 10 mM stock prepared in PBS and diluted to final concentrations between 1-100 nM) for Study 1. A delay in administration of cyclic(tri(prolylglycyl)) at 6 hours after glutamate treatment was performed for Study 2.
10 μl of toxin (L-glutamate-100 mM in Millipore water) was applied simultaneously with cyclic Glycyl-2-Methyl Proline (obtained NeuroBiomed, San Jose California), 10 mM stock prepared in PBS and diluted to final concentrations between 1-100 nM) for Study 1. A delay in administration of cPG at 6 hours after glutamate treatment was performed for Study 2.

The test system of data set [3] is 6-OHDA induced nigral-striatal lesion. Kind of data set: 6-OHDA induced nigral-striatal lesion, apomorphine-induced contralateral rotations. It is filed as in vivo, Wistar rats. Particulars: 1 mg (mg/kg) i.p. 2 hours post lesion; 7 days post-lesion, apomorphine 0.1 mg/kg; n=5; vehicle 290±18 or 292±21. The procedure: Twenty male Wistar rats (280-310 g) were used. After exposing the skull, 6-OHDA (8 μg in a base of 2 μl 0.9% saline containing 1% ascorbic acid) was administered into the right medial forebrain bundle (MFB) using co-ordinates AP +4.7 mm, R 1.6 mmv −8 mm under 3% halothane anaesthesia. 6-OHDA was injected through a 25G needle connected via a polyethylene catheter to a 100 μl Hamilton syringe. The 6-OHDA was infused by a microdialysis infusion pump at a rate of 0.5 μl/min. The needle was left in the brain for a further 3 minutes before being slowly withdrawn. The skin was sutured with 2.0 silk and the rats were allowed to recover from anaesthesia. The rats were housed in a holding room with free access to food and water at all times except during behavioural testing.
Cyclic PG was dissolved in saline. Four different doses of cPG (0, 0.1, 0.5, 1 mg/kg, Bachem) were administered intraperitoneally 2 hours post lesion.
At 7 days post-lesion, rats were injected with 0.1 mg/kg apomorphine and the number of contralateral rotations/hour was recorded and calculated using a computerised Rotameter (St Diego Instruments). Experimenter was blinded from the treatment groups.
Cyclic(tri(prolylglycyl)) was dissolved in saline solution. Four different doses of Cyclic(tri(prolylglycyl)) (0, 0.1, 0.5, 1 mg/kg, NeuroBiomed) were administered intraperitoneally 2 hours post lesion.
Cyclic Glycyl-2-Methyl Proline (cGMeP) was dissolved in saline solution. Four different doses of cGMeP (0, 0.1, 0.5, 1 mg/kg, NeuroBiomed) were administered intraperitoneally 2 hours post lesion.

`COc1ccc(C(CN(C)C)C2(O)CCCCC2)cc1` (stereo not drawn) [Venlafaxine, reference compound]: the “patients with one or more AEs” value in data set [1] (6-week treatment period, venlafaxine group) is reported as 75%. Also, the “change from baseline in MADRS total score, Mean ± SD” value in data set [1] (LOCF, ANCOVA) was −21.9 ± 1.0; in data set [1] (MMRM) it was −23.5 ± 0.9; in data set [1] (OC, ANCOVA) it was −22.2 ± 0.9. In addition, the “MADRS total score, Difference to Placebo” value in data set [1] (MMRM) is −8.1 ± 1.3; in data set [1] (MMRM, listed as venlafaxine), 5.6±1.3; in data set [1] (OC, ANCOVA), −5.6 ± 1.3. The “patients withdrawn due to AEs” value in data set [1] (venlafaxine group) is given as 2 (25%) patients (%). Moreover, the “AEs reported by a majority of patients” value in data set [1] (venlafaxine group, 6 week) was “nausea, severe headache loss of strength, blurred vision, chest pain, fast or irregular heartbeat and suicidal thoughts”.
Turning to `CC12CCCN1C(=O)CNC2=O` [cGMeP, (8aS)-Methyl-hexahydropyrrolo[1,2-a]pyrazine-1,4-dione], the “improvement, recovery from glutamate induced neurotoxicity” value in data set [2] (1-100 nM given 6 hours after the glutamate treatment, compared to vehicle) is given as “approximately 58%”. Further, the “reduction of glutamate induced neuronal death” value in data set [2] (administered simultaneously with glutamate, 1-100 nM, glutamate alone 85% loss of neurons) came to 63%. In data set [3], the “number of contralateral rotations/hour” value stood at 134±69 rotations/hour.
